Results published in ChEMBL document CHEMBL3886639, “2,5-disubstituted-pyridyl nicotinic ligands, and methods of use thereof” (2016).

Test: [3H]-Epibatidine Radioligand Binding Assay: Briefly, cultured cells at >80% confluence were removed from their flasks (80 cm^2) with a disposable cell scraper and placed in 10 mL of 50 mM Tris.HCl buffer (pH 7.4, 4 °C.). The cell suspension was centrifuged at 10,000×g for 5 min and the pellet was collected. The cell pellet was then homogenized in 10 mL buffer with a polytron homogenizer and centrifuged at 36,000 g for 10 min at 4 °C. The membrane pellet was resuspended in fresh buffer, and aliquots of the membrane preparation were used for binding assays. The concentration of [3H]-epibatidine used was ~500 pM for competition binding assays. […] Bound and free ligands were separated by vacuum filtration through Whatman GF/C filters treated with 0.5% polyethylenimine. The filter-retained radioactivity was measured by liquid scintillation counting. Specific binding was defined as the difference between total binding and nonspecific binding. Data from competition binding assays were analyzed using Prism 5 (GraphPad Software, San Diego, Calif.).

**Q.** Which Ki does the source give for `CCCCC#Cc1cnc(C(F)(F)F)c(OC[C@@H]2CCN2)c1` here?
**A.** Its Ki is over 100 µM.
